Counter-ions that a name gives are not always drawn.
target: T1, human vasopressin V2 receptor subtype (Homo sapiens, UniProt P30518); assay: Vasopressin binding in Chinese Hamster Ovary cell membranes expressing human vasopressin V2 subtype receptors; conditions: 100 nM, CHO cell membranes, [3H]arginine vasopressin, values without parentheses
T1 construct: host or cells: CHO cells (pZeoSV vector)
Method in brief: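 Radioligand displacement on membranes from CHO cells stably expressing human V2 receptor, 25 to 50 μg protein/well, in 50 mM Tris-HCl pH 7.4 with MgCl2, BSA and protease inhibitors. [^3H]arginine vasopressin (8 nM working solution) incubated 60 min at room temperature; bound label measured by filtration and scintillation counting.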

T1 sequence (P30518 whole entry): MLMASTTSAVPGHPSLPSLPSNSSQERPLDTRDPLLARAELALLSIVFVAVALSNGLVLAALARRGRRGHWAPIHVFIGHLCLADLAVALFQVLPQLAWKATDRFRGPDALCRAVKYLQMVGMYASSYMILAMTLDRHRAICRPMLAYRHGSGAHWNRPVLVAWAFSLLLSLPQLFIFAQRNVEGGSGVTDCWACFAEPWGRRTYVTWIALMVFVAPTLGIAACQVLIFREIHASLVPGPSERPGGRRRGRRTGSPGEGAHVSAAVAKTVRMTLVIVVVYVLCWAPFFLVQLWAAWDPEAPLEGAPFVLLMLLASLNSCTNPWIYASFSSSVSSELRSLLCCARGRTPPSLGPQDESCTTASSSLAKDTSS

SMILES | inhibition at 0.1 µM [%]
COc1ccccc1-c1ccc(C(=O)N2Cc3ccc(C(=O)N(C)CCCN(C)C)n3Cc3ccccc32)cc1C [Example 100, N-[3-(Dimethylamino)propyl]-10-[(2′-methoxy-2-methyl[1,1′-biphenyl]-4-yl)carbonyl]-N-methyl-10,11-dihydro-5H-pyrrolo[2,1-c][1,4]benzodiazepine-3-carboxamide] | 26
COc1cccc(-c2ccc(C(=O)N3Cc4ccc(C(=O)NCCCN(C)C)n4Cc4ccccc43)cc2OC)c1 [Example 82, 10-[(2,3′-Dimethoxy[1,1′-biphenyl]-4-yl)carbonyl]-N-[3-(dimethylamino)propyl]-10,11-dihydro-5H-pyrrolo[2,1-c][1,4]benzodiazepine-3-carboxamide] | 10
COc1cccc(-c2ccc(C(=O)N3Cc4ccc(C(=O)N(C)CCN(C)C)n4Cc4ccccc43)cc2OC)c1 [Example 95, 10-[(2,3′-Dimethoxy[1,1′-biphenyl]-4-yl)carbonyl]-N-[2-(dimethylamino)ethyl]-N-methyl-10,11-dihydro-5H-pyrrolo[2,1-c][1,4]benzodiazepine-3-carboxamide] | 13
COc1ccccc1-c1ccc(C(=O)N2Cc3ccc(C(=O)N(C)CCN(C)C)n3Cc3ccccc32)cc1C [Example 88, N-[2-(Dimethylamino)ethyl]-10-[(2′-methoxy-2-methyl[1,1′-biphenyl]-4-yl)carbonyl]-N-methyl-10,11-dihydro-5H-pyrrolo[2,1-c][1,4]benzodiazepine-3-carboxamide] | 30
COc1ccccc1-c1ccc(C(=O)N2Cc3ccc(C(=O)N(C)CCN(C)C)n3Cc3ccccc32)cc1OC [Example 94, 10-[(2,2′-Dimethoxy[1,1′-biphenyl]-4-yl)carbonyl]-N-[2-(dimethylamino)ethyl]-N-methyl-10,11-dihydro-5H-pyrrolo[2,1-c][1,4]benzodiazepine-3-carboxamide] | 26

same assay, conditions: CHO cell membranes, [3H]arginine vasopressin, values in parentheses

SMILES | IC50 [nM]
COc1ccccc1-c1ccc(C(=O)N2Cc3ccc(C(=O)N4CC[C@@H](N(C)C)C4)n3Cc3ccccc32)cc1C [Example 272, [(3R)-3-(Dimethylamino)pyrrolidinyl]{10-[(2′-methoxy-2-methyl[1,1′-biphenyl]-4-yl)carbonyl]-10,11-dihydro-5H-pyrrolo[2,1-c][1,4]benzodiazepin-3-yl}methanone] | 1300
COc1cc(-c2ccccc2C)c(Cl)cc1C(=O)N1Cc2ccc(C(=O)N3CC[C@@H](N(C)C)C3)n2Cc2ccccc21 [Example 273, {10-[(6-Chloro-3-methoxy-2′-methyl[1,1′-biphenyl]-4-yl)carbonyl]-10,11-dihydro-5H-pyrrolo[2,1-c][1,4]benzodiazepin-3-yl}[(3R)-3-(dimethylamino)pyrrolidinyl]methanone] | 812
Cc1cc(C(=O)N2Cc3ccc(C(=O)NC(=N)N)n3Cc3ccccc32)ccc1-c1ccccc1C(F)(F)F [Example 8, N-[(10-{[2-methyl-2′-(trifluoromethyl)[1,1′-biphenyl]-4-yl]carbonyl}-10,11-dihydro-5H-pyrrolo[2,1-c][1,4]benzodiazepin-3-yl)carbonyl]guanidine] | 1470
Cc1cc(C(=O)N2Cc3ccc(C(=O)N4CCNCC4)n3Cc3ccccc32)ccc1-c1ccccc1C(F)(F)F [Example 7, 10,11-Dihydro-10-[[2-methyl-2′-trifluoromethyl-[1,1′-biphenyl]-4-yl]carbonyl]-3-(1-piperazinylcarbonyl)-5H-pyrrolo[2,1-c][1,4]benzodiazepine hydrochloride salt] | 2460
Cc1cc(C(=O)N2Cc3ccc(C(=O)N4CCC[C@H]4CN4CCCC4)n3Cc3ccccc32)ccc1-c1ccccc1C(F)(F)F [Example 258, (10-{[2-Methyl-2′-(trifluoromethyl)[1,1′-biphenyl]-4-yl]carbonyl}-10,11-dihydro-5H-pyrrolo[2,1-c][1,4]benzodiazepin-3-yl)[(2S)-2-(1-pyrrolidinylmethyl)pyrrolidinyl]methanone] | 5680
